From patent publication US8497240B2 (priority 2006, dated 2013)
Like-named read-outs stand apart in the source and are kept apart here.

Type: in vivo, NIH/Swiss mice
Experimental: In FIG. 3A, bars represent mean±sd, n=6-10. […] Gavage (1.5 g/kg) was given at t=0, Sample was taken at t=30 min. […] In FIG. 3B, points represent mean±sem, n=8-15.
Peptide was injected IP at t=−5 minutes into 4-hour fasted NIH/Swiss female mice. […] In FIG. 17 points represent mean+/−sem. […] Samples were taken at t=60, t=120 and t=180.

SMILES	OGTT/GL (%) (350 nmol/kg)	OGTT/GL (%) (30 nmol/kg)
CC[C@H](C)[C@H](NC(=O)[C@H](CCCCN)NC(=O)[C@H](CC(=O)O)NC(=O)[C@H](CCSC)NC(=O)[C@@H](NC(=O)[C@@H](NC(=O)[C@H](CO)NC(=O)[C@H](Cc1ccc(O)cc1)NC(=O)[C@H](CC(=O)O)NC(=O)[C@H](CO)NC(=O)[C@@H](NC(=O)[C@H](Cc1ccccc1)NC(=O)[C@@H](NC(=O)CNC(=O)[C@H](CCC(=O)O)NC(=O)[C@@H](C)NC(=O)[C@@H](N)Cc1ccc(O)cc1)[C@@H](C)O)[C@@H](C)CC)[C@@H](C)CC)[C@@H](C)O)C(=O)N[C@@H](Cc1c[nH]cn1)C(=O)N[C@@H](CCC(N)=O)C(=O)N[C@@H](CCC(N)=O)C(=O)N[C@@H](CC(=O)O)C(=O)N[C@@H](Cc1ccccc1)C(=O)N[C@H](C(=O)N[C@@H](CC(N)=O)C(=O)N[C@@H](Cc1c[nH]c2ccccc12)C(=O)N[C@@H](CC(C)C)C(=O)N[C@@H](CC(C)C)C(=O)N[C@@H](C)C(=O)N[C@@H](CCC(N)=O)C(=O)N[C@@H](CCCCN)C(=O)N1CCC[C@H]1C(=O)N[C@@H](CO)C(=O)N[C@@H](CO)C(=O)NCC(=O)N[C@@H](C)C(=O)N1CCC[C@H]1C(=O)N1CCC[C@H]1C(=O)N1CCC[C@H]1C(=O)N[C@@H](CO)C(N)=O)C(C)C [Compound 0601GIP4213]	−17	–
CC[C@H](C)[C@H](NC(=O)[C@H](CO)NC(=O)[C@H](Cc1ccc(O)cc1)NC(=O)[C@H](CC(=O)O)NC(=O)[C@H](CO)NC(=O)[C@@H](NC(=O)[C@H](Cc1ccccc1)NC(=O)[C@@H](NC(=O)CNC(=O)[C@H](CCC(=O)O)NC(=O)[C@H](C)NC(=O)[C@@H](N)Cc1ccc(O)cc1)[C@@H](C)O)[C@@H](C)CC)C(=O)N[C@@H](C)C(=O)N[C@@H](CCSC)C(=O)N[C@@H](CC(=O)O)C(=O)N[C@@H](CCCCN)C(=O)N[C@H](C(=O)N[C@@H](Cc1c[nH]cn1)C(=O)N[C@@H](CCC(N)=O)C(=O)N[C@@H](CCC(N)=O)C(=O)N[C@@H](CC(=O)O)C(=O)N[C@@H](Cc1ccccc1)C(=O)N[C@H](C(=O)N[C@@H](CC(N)=O)C(=O)N[C@@H](Cc1c[nH]c2ccccc12)C(=O)N[C@@H](CC(C)C)C(=O)N[C@@H](CC(C)C)C(=O)N[C@@H](C)C(=O)N[C@@H](CCC(N)=O)C(=O)N[C@@H](CCCCN)C(=O)N1CCC[C@H]1C(=O)N[C@@H](CCCCN)C(=O)N[C@@H](CCCCN)C(=O)N[C@H](C(=O)N[C@@H](CCCNC(=N)N)C(=O)N[C@@H](Cc1ccc(O)cc1)C(=O)N[C@@H](CO)C(N)=O)[C@@H](C)CC)C(C)C)[C@@H](C)CC [0601GIP4327]	–	−7, 30%
CC[C@H](C)[C@H](NC(=O)[C@H](CO)NC(=O)[C@H](Cc1ccc(O)cc1)NC(=O)[C@H](CC(=O)O)NC(=O)[C@H](CO)NC(=O)[C@@H](NC(=O)[C@H](Cc1ccccc1)NC(=O)[C@@H](NC(=O)CNC(=O)[C@H](CCC(=O)O)NC(=O)[C@@H](C)NC(=O)[C@@H](N)Cc1ccc(O)cc1)[C@@H](C)O)[C@@H](C)CC)C(=O)N[C@@H](C)C(=O)N[C@@H](CCSC)C(=O)N[C@@H](CC(=O)O)C(=O)N[C@@H](CCCCN)C(=O)N[C@H](C(=O)N[C@@H](Cc1c[nH]cn1)C(=O)N[C@@H](CCC(N)=O)C(=O)N[C@@H](CCC(N)=O)C(=O)N[C@@H](CC(=O)O)C(=O)N[C@@H](Cc1ccccc1)C(=O)N[C@H](C(=O)N[C@@H](CC(N)=O)C(=O)N[C@@H](Cc1c[nH]c2ccccc12)C(=O)N[C@@H](CC(C)C)C(=O)N[C@@H](CC(C)C)C(=O)N[C@@H](C)C(=O)N[C@@H](CCC(N)=O)C(=O)N[C@@H](CCCCN)C(=O)N1CCC[C@H]1C(=O)N[C@@H](CO)C(=O)N[C@@H](CCCCN)C(=O)N[C@@H](CCC(=O)O)C(=O)N[C@H](C(=O)N[C@H](C(=O)N[C@@H](CO)C(N)=O)[C@@H](C)CC)[C@@H](C)CC)C(C)C)[C@@H](C)CC [Compound 0601GIP4234]	−17	–
